Active and inactive are the calls of the source. No rule for the calls is given here.

Consider four compounds from PubChem BioAssay AID1259411 (Chemical Carcinogenesis Research Information System (CCRIS), 2018).

For this series, the system named is rodent carcinogenicity bioassays, tumor incidence. Kind of series: CCRIS carcinogenicity studies. Summed up: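 NCI-built, expert-reviewed records of carcinogenicity and related test outcomes (mutagenicity, tumor promotion/inhibition) compiled from published and report sources, historical span 1985-2011, not updated.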

Take `Cc1cc(C)c(N)cc1C`: the carcinogen call is, setting by setting: (Species: MOUSE, Strain/Sex: B6C3F1/FEMALE, Route: ORAL, Dose: 0, 50, 100 PPM IN DIET FOR 101 WK (STUDY DURATION: 101 WK), Dose: 0, 50, 100 PPM IN DIET FOR 101 WK (STUDY DURATION: 101 WK), Tumor Site: Type of Lesion: LIVER: HEPATOCELLULAR CARCINOMA) “active; positive”; (Species: MOUSE, Strain/Sex: B6C3F1/MALE, Route: ORAL, Dose: 0, 50, 100 PPM IN DIET FOR 101 WK (STUDY DURATION: 101 WK), Dose: 0, 50, 100 PPM IN DIET FOR 101 WK (STUDY DURATION: 101 WK), Tumor Site: Type of Lesion: LIVER: HEPATOCELLULAR CARCINOMA) “equivocal”; (Species: RAT, Strain/Sex: F344/FEMALE, Route: ORAL, Dose: 0, 200, 800 PPM IN DIET FOR 101 WK (STUDY DURATION: 101 WK), Dose: 0, 200, 800 PPM IN DIET FOR 101 WK (STUDY DURATION: 101 WK), Tumor Site: Type of Lesion: LUNG: ALVEOLAR/BRONCHIOLAR ADENOMA OR CARCINOMA, LIVER: HEPATOCELLULAR CARCINOMA OR NEOPLASTIC NODULE) “active; positive”; (Species: RAT, Strain/Sex: F344/MALE, Route: ORAL, Dose: 0, 200, 800 PPM IN DIET FOR 101 WK (STUDY DURATION: 101 WK), Dose: 0, 200, 800 PPM IN DIET FOR 101 WK (STUDY DURATION: 101 WK), Tumor Site: Type of Lesion: LIVER: BILE DUCT CARCINOMA, HEPATOCELLULAR CARCINOMA OR NEOPLASTIC NODULE) “active; positive”.

In the case of `O=[N+]([O-])c1ccc2c3c(cccc13)-c1ccccc1-2`, the carcinogen call (Species: MOUSE, Strain/Sex: B6C3F1/MALE, Route: INTRAPERITONEAL, Dose: 0, 400 NMOL IN 35 µL DMSO ON DAYS 1 (1/7 TOTAL DOSE), 8 (2/7 TOTAL DOSE), AND 15 (4/7 TOTAL DOSE) AFTER BIRTH (STUDY DUR) is “inactive; negative”; the carcinogen call (Species: MOUSE, Strain/Sex: ICR/FEMALE, Route: INTRAPERITONEAL, Dose: 0, 63 UG TOTAL DOSE (9 UG/5 µL, 18 UG/10 µL, 36 UG/20 µL DMSO ON DAYS 1, 8 AND 15), 315 UG TOTAL DOSE (45 UG/5 µL, 90 UG, Dose: 0, 63 UG TOTAL DOSE (9 UG/5 µL, 18 UG/10 µL, 36 UG/20 µL DMSO ON DAYS 1, 8 AND 15), 315 UG TOTAL DOSE (45 UG/5 µL, 90 UG, Tumor Site: Type of Lesion: LUNG: ADENOMA) was “active; positive”; the carcinogen call (Species: MOUSE, Strain/Sex: ICR/MALE, Route: INTRAPERITONEAL, Dose: 0, 63 UG TOTAL DOSE (9 UG/5 µL, 18 UG/10 µL, 36 UG/20 µL DMSO ON DAYS 1, 8 AND 15), 315 UG TOTAL DOSE (45 UG/5 µL, 90 UG, Dose: 0, 63 UG TOTAL DOSE (9 UG/5 µL, 18 UG/10 µL, 36 UG/20 µL DMSO ON DAYS 1, 8 AND 15), 315 UG TOTAL DOSE (45 UG/5 µL, 90 UG, Tumor Site: Type of Lesion: LUNG: ADENOMA) is “active; positive”; the carcinogen call (Species: RAT, Strain/Sex: F344/DUCRJ FISCHER/MALE, Route: SUBCUTANEOUS, Dose: 2 MG TWICE WEEKLY FOR A TOTAL OF 15 INJECTIONS (STUDY DURATION: 52 WK), Tumor Site: Type of Lesion: INTEGUMENTARY SYSTEM: FIBROUS HISTIOCYTOMAS) was “active; positive”; the carcinogen call (Species: RAT, Strain/Sex: F344/MALE, Route: LUNG IMPLANT, Dose: 0, 1000 UG SUSPENDED IN BEESWAX/TRICAPRYLIN INTO LOWER LEFT LUNG ONCE (STUDY DURATION: 100 WK)) is “inactive; negative”; the carcinogen call (Species: RAT, Strain/Sex: F344/MALE, Route: PULMONARY IMPLANT, Dose: 0, 1000 UG IN 50 µL BEESWAX/TRICAPRYLIN IMPLANTED FOR UP TO 100 WK (STUDY DURATION: 100 WK)) is “inactive; negative”.

For `O=[N+]([O-])c1ccc2ccc3cccc4c3c2c1C1OC41` (stereo unspecified), the carcinogen call runs as follows: (Species: MOUSE, Strain/Sex: B6C3F1/FEMALE, Route: INTRAPERITONEAL, Dose: 0, 7 NMOL (TOTAL DOSE), 1/7, 2/7 AND 4/7 OF THE TOTAL DOSE ADMINISTERED WITHIN 24 HR OF BIRTH AND AT 8 AND 15 D OF AGE) “inactive; negative”; (Species: MOUSE, Strain/Sex: B6C3F1/MALE, Route: INTRAPERITONEAL, Dose: 0, 7 NMOL (TOTAL DOSE), 1/7, 2/7 AND 4/7 OF THE TOTAL DOSE ADMINISTERED WITHIN 24 HR OF BIRTH AND AT 8 AND 15 D OF AGE) “inactive; negative”.

As for `CCN(N=O)C(=O)NCC(C)=O`, the carcinogen call was “active; positive” (Species: RAT, Strain/Sex: F344/FEMALE, Route: GAVAGE, Dose: 0, 9.5, 19 MG/ML IN CORN OIL/ETHYL ACETATE (2:1) 2/WK FOR 30 WK (STUDY DURATION: LIFETIME), Dose: 0, 9.5, 19 MG/ML IN CORN OIL/ETHYL ACETATE (2:1) 2/WK FOR 30 WK (STUDY DURATION: LIFETIME), Tumor Site: Type of Lesion: LUNG: TUMOR, MAMMARY GLAND: CARCINOMA, UTERUS: TUMOR, FORESTOMACH: TUMOR, SPLEEN: TUMOR, ZYMBAL GLAND: TUMOR, SMALL INTE, Tumor Site: Type of Lesion: LUNG: TUMOR, MAMMARY GLAND: CARCINOMA, UTERUS: TUMOR, FORESTOMACH: TUMOR, SPLEEN: TUMOR, ZYMBAL GLAND: TUMOR, SMALL INTE); “active; positive” (Species: RAT, Strain/Sex: F344/FEMALE, Route: ORAL, Dose: 0, 40, 80 MG/L IN DRINKING WATER 5 D/WK FOR 30 WK (STUDY DURATION: LIFETIME), Dose: 0, 40, 80 MG/L IN DRINKING WATER 5 D/WK FOR 30 WK (STUDY DURATION: LIFETIME), Tumor Site: Type of Lesion: LIVER: TUMOR, LUNG: TUMOR, MAMMARY GLAND: CARCINOMA, UTERUS: TUMOR, THYROID: FOLLICULAR TUMOR, COLON: TUMOR, NERVOUS SYS, Tumor Site: Type of Lesion: LIVER: TUMOR, LUNG: TUMOR, MAMMARY GLAND: CARCINOMA, UTERUS: TUMOR, THYROID: FOLLICULAR TUMOR, COLON: TUMOR, NERVOUS SYS); “active; positive” (Species: RAT, Strain/Sex: F344/MALE, Route: GAVAGE, Dose: 0, 9.5, 19 MG/ML IN CORN OIL/ETHYL ACETATE (2:1) 2/WK FOR 30 WK (STUDY DURATION: LIFETIME), Dose: 0, 9.5, 19 MG/ML IN CORN OIL/ETHYL ACETATE (2:1) 2/WK FOR 30 WK (STUDY DURATION: LIFETIME), Tumor Site: Type of Lesion: LIVER: TUMOR, LUNG: TUMOR, MESOTHELIUM: TUMOR, NERVOUS SYSTEM: TUMOR, THYROID: FOLLICULAR TUMOR, FORESTOMACH: TUMOR, SPL, Tumor Site: Type of Lesion: LIVER: TUMOR, LUNG: TUMOR, MESOTHELIUM: TUMOR, NERVOUS SYSTEM: TUMOR, THYROID: FOLLICULAR TUMOR, FORESTOMACH: TUMOR, SPL); “active; positive” (Species: RAT, Strain/Sex: F344/MALE, Route: ORAL, Dose: 0, 40, 80 MG/L IN DRINKING WATER FOR 5 D/WK FOR 30 WK (STUDY DURATION: LIFETIME), Dose: 0, 40, 80 MG/L IN DRINKING WATER FOR 5 D/WK FOR 30 WK (STUDY DURATION: LIFETIME), Tumor Site: Type of Lesion: LUNG: TUMOR, THYROID: FOLLICULAR TUMOR, COLON: TUMOR, MESOTHELIUM: TUMOR, NERVOUS SYSTEM: TUMOR, SKIN: TUMOR, ZYMBAL GLA, Tumor Site: Type of Lesion: LUNG: TUMOR, THYROID: FOLLICULAR TUMOR, COLON: TUMOR, MESOTHELIUM: TUMOR, NERVOUS SYSTEM: TUMOR, SKIN: TUMOR, ZYMBAL GLA).
